Like-named read-outs stand apart in the source and are kept apart here.
Assays:
[1] = test system: TPA-induced ornithine decarboxylase (ODC) activity in T24 cells; experiment: Inhibition of TPA-induced ornithine decarboxylase (ODC) activity in T24 cells; assay type: cell-based; conditions: Homo sapiens, read-out: IC50, inhibition of TPA-induced ODC activity
HL-60 cells = experiment: Induction of differentiation in HL-60 cell line (NBT reduction, 4-day protocol); assay type: cell-based
[2] = target: T1, aromatase (CYP19, BD Biosciences) (Homo sapiens, UniProt P11511); experiment: Assay for inhibition of aromatase activity (fluorescence, dibenzylfluorescein)
T1 sequence (P11511 1-503): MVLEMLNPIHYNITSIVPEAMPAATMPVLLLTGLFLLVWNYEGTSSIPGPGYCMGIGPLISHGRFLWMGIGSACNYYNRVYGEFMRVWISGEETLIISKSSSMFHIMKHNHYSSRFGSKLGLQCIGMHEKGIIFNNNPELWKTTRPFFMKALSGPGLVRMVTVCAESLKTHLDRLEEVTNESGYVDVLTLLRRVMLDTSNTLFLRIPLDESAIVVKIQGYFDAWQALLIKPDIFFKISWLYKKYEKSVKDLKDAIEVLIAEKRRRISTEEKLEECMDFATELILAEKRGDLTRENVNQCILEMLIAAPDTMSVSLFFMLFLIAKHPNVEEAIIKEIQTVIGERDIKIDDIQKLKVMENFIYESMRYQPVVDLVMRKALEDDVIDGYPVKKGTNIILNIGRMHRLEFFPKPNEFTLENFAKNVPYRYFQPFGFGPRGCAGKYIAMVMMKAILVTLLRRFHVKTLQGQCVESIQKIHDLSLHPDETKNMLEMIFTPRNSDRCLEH
Description: Aromatase inhibition is quantified by measuring the fluorescent intensity of fluorescein, the hydrolysis product of dibenzylfluorescein by aromatase. In brief, the test substance (10 μL) is pre-incubated with the NADPH regenerating system (90 μL of 2.6 mM NADP^+, 7.6 mM glucose 6-phosphate, 0.8 U/mL glucose-6-phosphate dehydrogenase, 13.9 mM MgCl2, and 1 mg/mL albumin in 10 mL of 50 mM potassium phosphate, pH 7.4) for 10 min at 37° C. before 100 μL of the enzyme and substrate mixture [800 μL enzyme (CYP19, BD Biosciences, San Jose, Calif.), 0.4 μM dibenzylfluorescein and 4 mg/mL albumin in 10 mL of 50 mM potassium phosphate, pH 7.4] are added. Then, the reaction mixture is incubated for 30 min at 37° C. to allow aromatase to generate the product, and quenched with 75 μL 2 N NaOH. After the reaction is terminated, a 5-min shaking followed by a 2-h incubation at 37° C. enhances the noise/background ratio and fluorescence is measured at 485 nm (excitation) and 530 nm (emission). All experiments were performed in duplicate and the average was used for calculation of IC50 values (Table 2). Compounds were tested in comparison to aminogluthethimide used as positive control.

[3] = test system: TPA-induced NF-κB activity in HepG2 cells stably transfected with NF-κB-luciferase plasmid; experiment: Inhibition of TPA-induced NF-κB activity in HepG2 cells (NF-κB-luciferase); assay type: cell-based, human
[4] = T-24, T24 cells, TPA 200 nM, 6 h incubation
[5] = read-out: IC50 (μM), aromatase inhibition, fluorescein from dibenzylfluorescein, 30 min at 37° C., average of duplicates

Row | Compound | IC50 [2] | other results
1 | O=c1cc(-c2ccc(O)cc2)oc2cc(O)cc(O)c12 [apigenin] | – | IC50 [1, 4]: 6 µM; ED50, concentration inducing 50% of the cells to differentiate (HL-60 cells): 10 µM
2 | COCOc1ccc(C(=O)/C=C/c2ccc(OC)c(CC=C(C)C)c2)c(O)c1 [7c, 1-(2-Hydroxy-4-(methoxymethoxy)phenyl)-3-(4-methoxy-3-(3-methylbut-2-enyl)phenyl)prop-2-en-1-one] | > 261 µM | –
3 | COc1ccc(C(=O)CC(O)c2ccc(OC)c(CC=C(C)C)c2)c(O)c1 (stereo not shown) [3-Hydroxy-1-(2-hydroxy-4-methoxyphenyl)-3-(4-methoxy-3-(3-methylbut-2-enyl)phenyl)propan-1-one] | – | IC50 [2, 5]: 54.7 ± 11.9 µM
4 | COc1ccc(C(=O)C=Cc2ccc(OCC=C(C)C)cc2)c(O)c1 [7k, 1-(2-Hydroxy-4-methoxyphenyl)-3-(4-(3-methylbut-2-enyloxy)phenyl)prop-2-en-1-one] | > 271 µM | melting point: 95 to 97 °C
5 | COCOc1ccc(/C=C/C(=O)c2ccc(OC)cc2O)cc1CC=C(C)C [7e, 1-(2-Hydroxy-4-methoxyphenyl)-3-(4-(methoxymethoxy)-3-(3-methylbut-2-enyl)phenyl)prop-2-en-1-one] | > 261 µM | –
6 | CC(C)=CCc1cc(/C=C/C(=O)c2ccc(O)cc2O)ccc1O [7b, 1-(2,4-Dihydroxyphenyl)-3-(4-hydroxy-3-(3-methylbut-2-enyl)phenyl)-prop-2-en-1-one] | > 308 µM | melting point: 167 °C
7 | COc1ccc(/C=C/C(=O)c2ccc(OC)cc2O)cc1 [7j, 1-(2-Hydroxy-4-methoxyphenyl)-3-(4-methoxyphenyl)prop-2-en-1-one] | > 352 µM | –
8 | COc1ccc(/C=C/C(=O)c2ccc(O)cc2O)cc1CC=C(C)C [7d, 1-(2,4-Dihydroxyphenyl)-3-(4-methoxy-3-(3-methylbut-2-enyl)phenyl)prop-2-en-1-one] | – | IC50 [2, 5]: 82.9 ± 44.3 µM; melting point: 166 to 168 °C
9 | COc1ccc(/C=C/C(=O)c2ccccc2O)cc1CC=C(C)C [7h, 1-(2-Hydroxyphenyl)-3-(4-methoxy-3-(3-methylbut-2-enyl)phenyl)prop-2-en-1-one] | > 310 µM | –
10 | COc1ccc2c(c1)OC(c1ccc(OCC=C(C)C)cc1)CC2=O (racemic) [8k, 7-Methoxy-2-(4-(3-methylbut-2-enyloxy)phenyl)chroman-4-one] | – | melting point: 108 to 110 °C
11 | Tumor necrosis factor (TNF)-α | – | IC50, standard inhibitor in NF-κB luciferase assay [3]: 0.015 to 0.025 µg/mL
12 | COc1ccc(C(=O)/C=C/c2ccc(OC)c(CC=C(C)C)c2)c(O)c1 [7g, 1-(2-Hydroxy-4-methoxyphenyl)-3-(4-methoxy-3-(3-methylbut-2-enyl)phenyl)prop-2-en-1-one] | > 284 µM | melting point: 82 to 84 °C
13 | O=c1c(-c2ccc(O)cc2)coc2cc(O)cc(O)c12 [genistein] | – | ED50, concentration inducing 50% of the cells to differentiate (HL-60 cells): 30 µM
14 | CC1=CC(=O)c2ccccc2C1=O [menadione] | – | IC50 [1, 4]: 8.3 µM
15 | COCOc1ccc(C(=O)/C=C/c2ccc(OCOC)c(CC=C(C)C)c2)c(O)c1 [7a, 1-(2-Hydroxy-4-(methoxymethoxy)phenyl)-3-(4-(methoxymethoxy)-3-(3-methylbut-2-enyl)phenyl)prop-2-en-1-one] | > 243 µM | –
16 | CC(C)=CCc1cc(C2CC(=O)c3ccc(O)cc3O2)ccc1O (racemic) [8b, 7-Hydroxy-2-(4-hydroxy-3-(3-methylbut-2-enyl)phenyl)chroman-4-one] | – | melting point: 76 to 78 °C
17 | COc1ccc(C(=O)/C=C/c2ccc(O)c(CC=C(C)C)c2)c(O)c1 [7f, 3-(4-Hydroxy-3-(3-methylbut-2-enyl)phenyl)-1-(2-hydroxy-4-methoxyphenyl)prop-2-en-1-one] | > 295 µM | melting point: 80 to 82 °C
18 | COc1cc2c(cc1OC)[C@@H]1C(=O)c3ccc4c(c3O[C@@H]1CO2)C=CC(C)(C)O4 [deguelin] | – | IC50 ([1]; T-24, 6 h): 0.1 µM
19 | COc1ccc(C(=O)/C=C/c2cccc(CC=C(C)C)c2)c(O)c1 [7i, 1-(2-Hydroxy-4-methoxyphenyl)-3-(3-(3-methylbut-2-enyl)phenyl)prop-2-en-1-one] | > 310 µM | –

Further lines, with some results ahead:

Row | IC50 [2] | Compound | other results
20 | 4.75 ± 0.61 µM | COc1ccc2c(c1)OC(c1ccc(O)c(CC=C(C)C)c1)CC2=O (racemic) [8f, 2-(4-Hydroxy-3-(3-methylbut-2-enyl)phenyl)-7-methoxychroman-4-one] | –
21 | 3.67 ± 1.61 µM | COc1ccc2c(c1)OC(c1ccc(OC)c(CC=C(C)C)c1)CC2=O (racemic) [8g, 7-Methoxy-2-(4-methoxy-3-(3-methylbut-2-enyl)phenyl)chroman-4-one] | –
22 | 25.1 ± 6.38 µM | COCOc1ccc(C2CC(=O)c3ccc(OC)cc3O2)cc1CC=C(C)C (racemic) [8e, 7-Methoxy-2-(4-(methoxymethoxy)-3-(3-methylbut-2-enyl)phenyl)chroman-4-one] | –
23 | 4.08 ± 2.1 µM | COc1ccc(C2CC(=O)c3ccc(O)cc3O2)cc1CC=C(C)C (racemic) [8d, 7-Hydroxy-2-(4-methoxy-3-(3-methylbut-2-enyl)phenyl)chroman-4-one] | –
24 | 7.67 ± 3.27 µM | COCOc1ccc2c(c1)OC(c1ccc(OC)c(CC=C(C)C)c1)CC2=O (racemic) [8c, 2-(4-Methoxy-3-(3-methylbut-2-enyl)phenyl)-7-(methoxymethoxy)chroman-4-one] | –
25 | 12.1 ± 3.24 µM | COc1ccc(C2CC(=O)c3ccccc3O2)cc1CC=C(C)C (racemic) [8h, 2-(4-Methoxy-3-(3-methylbut-2-enyl)phenyl)chroman-4-one] | –
26 | 4.67 ± 2.15 µM | COc1ccc2c(c1)OC(c1cccc(CC=C(C)C)c1)CC2=O (racemic) [8i, 7-Methoxy-2-(3-(3-methylbut-2-enyl)phenyl)chroman-4-one] | –
27 | 13.9 ± 6.09 µM | COCOc1ccc2c(c1)OC(c1ccc(OCOC)c(CC=C(C)C)c1)CC2=O (racemic) [8a, 7-(Methoxymethoxy)-2-(4-(methoxymethoxy)-3-(3-methylbut-2-enyl)phenyl)-chroman-4-one] | –
28 | 1.86 ± 0.37 µM | COc1ccc(C2CC(=O)c3ccc(OC)cc3O2)cc1 (racemic) [8j, 7-Methoxy-2-(4-methoxyphenyl)chroman-4-one] | –

— patent publication US8946287B2, “Chemotherapeutic flavonoids, and syntheses thereof” (Purdue Research Foundation, priority 2006, dated 2015)
